Assay results from ChEMBL document CHEMBL5465560, “Selectivity Literature for EUbOPEN Chemogenomic Library” (2024).

What was measured:
[1] = biological target: T1, Inhibitor of nuclear factor kappa-B kinase subunit beta (Homo sapiens) (UniProt O14920); assay: Selectivity interaction (KinomeScan (DiscoverX)) EUB0001049a IKBKB; conditions: at 1 µM
T1 sequence (whole entry): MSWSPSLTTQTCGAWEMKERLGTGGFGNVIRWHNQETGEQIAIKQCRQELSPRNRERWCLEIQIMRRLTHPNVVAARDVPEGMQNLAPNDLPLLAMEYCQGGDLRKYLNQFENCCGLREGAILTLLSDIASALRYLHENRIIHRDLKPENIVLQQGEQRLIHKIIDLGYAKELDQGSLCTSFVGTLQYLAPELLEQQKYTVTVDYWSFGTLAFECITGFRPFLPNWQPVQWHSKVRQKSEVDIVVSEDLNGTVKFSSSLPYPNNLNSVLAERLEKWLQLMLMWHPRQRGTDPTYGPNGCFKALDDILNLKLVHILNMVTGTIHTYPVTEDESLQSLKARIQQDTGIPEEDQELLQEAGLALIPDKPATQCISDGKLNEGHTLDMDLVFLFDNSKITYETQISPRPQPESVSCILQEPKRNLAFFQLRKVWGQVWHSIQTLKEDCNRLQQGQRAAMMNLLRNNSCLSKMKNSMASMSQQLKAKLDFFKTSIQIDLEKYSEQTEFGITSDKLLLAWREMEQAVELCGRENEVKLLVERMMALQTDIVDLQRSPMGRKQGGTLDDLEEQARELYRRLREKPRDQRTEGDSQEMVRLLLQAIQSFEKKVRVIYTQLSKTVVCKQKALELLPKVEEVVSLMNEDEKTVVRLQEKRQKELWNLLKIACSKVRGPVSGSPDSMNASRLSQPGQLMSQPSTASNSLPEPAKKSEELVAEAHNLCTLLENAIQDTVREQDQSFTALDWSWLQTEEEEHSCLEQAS

[2] = biological target: Casein kinase I isoform gamma-3 (Homo sapiens) (UniProt Q9Y6M4); assay: Selectivity interaction (KinomeScan (DiscoverX)) EUB0001049a CSNK1G3; conditions: at 1 µM
[3] = biological target: Cyclin-dependent kinase 15 (Homo sapiens) (UniProt Q96Q40); assay: Selectivity interaction (KinomeScan (DiscoverX)) EUB0000229b CDK15; conditions: at 10 µM
[4] = biological target: Phosphatidylinositol 4-phosphate 5-kinase type-1 gamma (Homo sapiens) (UniProt O60331); assay: Selectivity interaction (KinomeScan (DiscoverX)) EUB0001079a PIP5K1C; conditions: at 1 µM
[5] = biological target: T2, Dual specificity tyrosine-phosphorylation-regulated kinase 2 (Homo sapiens) (UniProt Q92630); assay: Selectivity interaction (Kinase panel (DSF assay)) EUB0001558a DYRK2
T2 sequence (whole entry): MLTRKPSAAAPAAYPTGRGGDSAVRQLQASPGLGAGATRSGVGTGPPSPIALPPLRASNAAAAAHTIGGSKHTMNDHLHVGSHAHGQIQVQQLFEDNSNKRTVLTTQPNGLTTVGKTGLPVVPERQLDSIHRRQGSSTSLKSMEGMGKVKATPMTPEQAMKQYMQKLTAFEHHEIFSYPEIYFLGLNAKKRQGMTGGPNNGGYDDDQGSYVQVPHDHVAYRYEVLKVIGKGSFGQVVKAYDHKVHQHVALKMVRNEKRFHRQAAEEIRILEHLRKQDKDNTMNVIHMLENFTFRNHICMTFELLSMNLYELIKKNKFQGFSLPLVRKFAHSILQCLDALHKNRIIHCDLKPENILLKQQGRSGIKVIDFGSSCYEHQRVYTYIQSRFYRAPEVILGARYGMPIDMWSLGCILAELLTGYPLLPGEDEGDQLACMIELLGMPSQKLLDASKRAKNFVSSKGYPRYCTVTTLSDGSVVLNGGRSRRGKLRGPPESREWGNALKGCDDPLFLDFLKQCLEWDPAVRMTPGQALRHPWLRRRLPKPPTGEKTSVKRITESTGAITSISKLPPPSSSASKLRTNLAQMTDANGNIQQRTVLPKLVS

[6] = biological target: T3, Cyclin-dependent kinase 11A (Homo sapiens) (UniProt Q9UQ88); assay: Selectivity interaction (ActivX KiNativ screen (kinase selectivity in THP-1 cell lysates)) EUB0000639a CDK11A; format: subcellular; conditions: lysate, at 0.2 µM
T3 sequence (whole entry): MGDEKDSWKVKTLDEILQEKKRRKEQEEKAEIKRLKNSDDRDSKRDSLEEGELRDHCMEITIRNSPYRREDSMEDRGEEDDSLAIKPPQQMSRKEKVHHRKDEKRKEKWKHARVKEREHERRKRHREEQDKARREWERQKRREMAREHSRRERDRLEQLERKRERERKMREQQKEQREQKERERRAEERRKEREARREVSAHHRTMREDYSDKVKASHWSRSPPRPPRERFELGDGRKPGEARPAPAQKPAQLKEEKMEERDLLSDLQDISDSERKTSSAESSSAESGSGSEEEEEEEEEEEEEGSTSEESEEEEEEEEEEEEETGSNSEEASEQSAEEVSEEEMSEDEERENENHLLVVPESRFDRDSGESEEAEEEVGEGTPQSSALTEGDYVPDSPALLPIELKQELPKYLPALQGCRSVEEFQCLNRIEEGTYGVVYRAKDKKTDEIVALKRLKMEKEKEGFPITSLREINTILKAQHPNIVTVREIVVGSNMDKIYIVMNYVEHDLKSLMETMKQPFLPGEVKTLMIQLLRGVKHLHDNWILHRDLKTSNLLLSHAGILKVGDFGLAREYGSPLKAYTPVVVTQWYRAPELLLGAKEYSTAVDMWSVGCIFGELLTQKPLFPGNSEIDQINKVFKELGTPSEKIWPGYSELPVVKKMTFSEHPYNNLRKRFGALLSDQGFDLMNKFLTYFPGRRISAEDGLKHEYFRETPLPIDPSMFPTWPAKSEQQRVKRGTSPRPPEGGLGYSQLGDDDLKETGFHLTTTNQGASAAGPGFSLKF

[7] = biological target: Vascular endothelial growth factor receptor 1 (Homo sapiens) (UniProt P17948); assay: Selectivity interaction (KinomeScan (DiscoverX)) EUB0000655a FLT1; conditions: at 10 µM
[8] = biological target: cAMP-dependent protein kinase catalytic subunit alpha (Homo sapiens, UniProt P17612); assay: Selectivity interaction (KinomeScan (DiscoverX)) EUB0000695a PRKACA; conditions: at 100 nM
[9] = biological target: Serine/threonine-protein kinase mTOR (Homo sapiens, UniProt P42345); assay: Selectivity interaction (ProQinase) EUB0000171b MTOR

Casein kinase I isoform gamma-3 (Homo sapiens), sequence (Q9Y6M4 whole entry, looked up, canonical isoform): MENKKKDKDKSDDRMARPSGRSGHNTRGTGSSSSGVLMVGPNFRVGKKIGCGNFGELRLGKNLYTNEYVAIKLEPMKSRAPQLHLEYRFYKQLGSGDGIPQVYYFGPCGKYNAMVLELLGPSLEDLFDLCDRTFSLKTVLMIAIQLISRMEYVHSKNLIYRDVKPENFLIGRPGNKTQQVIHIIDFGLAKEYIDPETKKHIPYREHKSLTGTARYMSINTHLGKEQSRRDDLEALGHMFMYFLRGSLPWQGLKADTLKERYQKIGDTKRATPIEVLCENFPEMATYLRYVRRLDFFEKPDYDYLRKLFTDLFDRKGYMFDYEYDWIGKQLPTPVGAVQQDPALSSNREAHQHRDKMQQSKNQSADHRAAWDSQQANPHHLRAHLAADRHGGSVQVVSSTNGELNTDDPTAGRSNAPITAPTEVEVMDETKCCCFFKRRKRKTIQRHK
Phosphatidylinositol 4-phosphate 5-kinase type-1 gamma (Homo sapiens), sequence (O60331 whole entry): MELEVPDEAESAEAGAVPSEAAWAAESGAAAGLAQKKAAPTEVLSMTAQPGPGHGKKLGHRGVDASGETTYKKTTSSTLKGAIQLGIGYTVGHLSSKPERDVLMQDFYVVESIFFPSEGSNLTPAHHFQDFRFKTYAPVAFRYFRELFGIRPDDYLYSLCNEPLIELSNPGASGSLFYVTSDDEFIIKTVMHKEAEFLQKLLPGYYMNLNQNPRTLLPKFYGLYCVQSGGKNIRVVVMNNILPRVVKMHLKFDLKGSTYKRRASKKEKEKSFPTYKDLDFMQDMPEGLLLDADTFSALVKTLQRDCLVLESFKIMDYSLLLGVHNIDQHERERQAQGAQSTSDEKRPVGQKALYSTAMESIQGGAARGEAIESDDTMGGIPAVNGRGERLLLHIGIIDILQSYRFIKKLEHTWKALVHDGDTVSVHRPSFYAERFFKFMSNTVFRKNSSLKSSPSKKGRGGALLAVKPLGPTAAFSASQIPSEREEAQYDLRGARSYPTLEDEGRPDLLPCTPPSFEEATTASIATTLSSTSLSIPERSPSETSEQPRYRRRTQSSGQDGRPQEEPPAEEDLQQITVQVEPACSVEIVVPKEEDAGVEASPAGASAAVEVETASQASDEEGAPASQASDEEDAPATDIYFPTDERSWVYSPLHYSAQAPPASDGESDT
Cyclin-dependent kinase 15 (Homo sapiens), sequence (Q96Q40 whole entry): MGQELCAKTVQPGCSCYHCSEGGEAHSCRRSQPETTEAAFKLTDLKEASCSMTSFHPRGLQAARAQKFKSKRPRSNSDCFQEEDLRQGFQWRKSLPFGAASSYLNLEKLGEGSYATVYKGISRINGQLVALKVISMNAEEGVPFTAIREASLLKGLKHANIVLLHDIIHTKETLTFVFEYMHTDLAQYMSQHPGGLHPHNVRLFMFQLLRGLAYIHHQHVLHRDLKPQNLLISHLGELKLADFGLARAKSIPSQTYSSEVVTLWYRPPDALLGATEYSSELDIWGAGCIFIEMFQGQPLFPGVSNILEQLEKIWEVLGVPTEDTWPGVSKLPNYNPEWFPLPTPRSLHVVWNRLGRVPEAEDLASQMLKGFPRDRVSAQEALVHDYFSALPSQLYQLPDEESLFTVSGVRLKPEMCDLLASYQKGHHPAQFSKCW
Vascular endothelial growth factor receptor 1 (Homo sapiens), sequence (P17948 whole entry): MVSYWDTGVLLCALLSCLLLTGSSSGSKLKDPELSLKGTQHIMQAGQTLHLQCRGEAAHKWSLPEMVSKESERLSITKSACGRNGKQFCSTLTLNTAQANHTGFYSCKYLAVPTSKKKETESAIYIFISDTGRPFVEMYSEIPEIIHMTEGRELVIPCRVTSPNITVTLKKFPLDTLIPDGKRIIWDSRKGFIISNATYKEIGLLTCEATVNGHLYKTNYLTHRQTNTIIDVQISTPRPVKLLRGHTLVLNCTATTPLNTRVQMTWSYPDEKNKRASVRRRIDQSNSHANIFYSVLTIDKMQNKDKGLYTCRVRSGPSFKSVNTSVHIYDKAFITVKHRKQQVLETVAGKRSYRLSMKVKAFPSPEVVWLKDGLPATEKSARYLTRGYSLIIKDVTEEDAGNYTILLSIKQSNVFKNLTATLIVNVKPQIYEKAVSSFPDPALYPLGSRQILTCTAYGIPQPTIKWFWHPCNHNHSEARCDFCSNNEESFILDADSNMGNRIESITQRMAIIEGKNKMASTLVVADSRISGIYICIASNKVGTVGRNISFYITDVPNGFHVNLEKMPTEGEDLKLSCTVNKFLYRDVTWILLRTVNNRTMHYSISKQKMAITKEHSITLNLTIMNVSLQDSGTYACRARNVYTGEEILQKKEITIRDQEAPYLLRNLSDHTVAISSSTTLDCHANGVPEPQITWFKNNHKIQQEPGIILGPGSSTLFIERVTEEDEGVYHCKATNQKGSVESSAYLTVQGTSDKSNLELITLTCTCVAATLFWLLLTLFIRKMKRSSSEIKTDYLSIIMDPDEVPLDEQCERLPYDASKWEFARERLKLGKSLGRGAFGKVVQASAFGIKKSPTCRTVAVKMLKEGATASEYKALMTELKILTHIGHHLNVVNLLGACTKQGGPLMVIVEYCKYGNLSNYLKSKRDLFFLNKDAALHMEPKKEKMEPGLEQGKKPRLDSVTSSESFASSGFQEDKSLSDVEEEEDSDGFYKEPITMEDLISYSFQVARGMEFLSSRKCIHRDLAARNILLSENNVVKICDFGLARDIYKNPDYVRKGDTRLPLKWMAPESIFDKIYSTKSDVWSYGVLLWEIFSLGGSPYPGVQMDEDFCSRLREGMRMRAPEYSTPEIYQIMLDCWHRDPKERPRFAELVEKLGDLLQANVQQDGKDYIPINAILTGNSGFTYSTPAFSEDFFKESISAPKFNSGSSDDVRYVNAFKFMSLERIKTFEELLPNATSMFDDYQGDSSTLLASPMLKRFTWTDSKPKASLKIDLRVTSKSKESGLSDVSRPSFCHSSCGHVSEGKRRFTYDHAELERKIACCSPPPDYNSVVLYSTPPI

For `COc1cc(Nc2nc(C)cc(-c3cnn4nc(OC)ccc34)n2)cc(C(F)(F)F)c1`, the % of control [1] was 81% and the % of control [2] was 98%.

In the case of `COc1cc(N(C)c2ccnc3ccc(C(F)(F)F)cc23)cc(OC)c1OC`, the % binding [3] is reported as 85%.

For `Nc1cnc(N2CCc3cc(S(=O)(=O)Nc4c(F)cc(Cl)cc4F)cc(N4CCCC4=O)c32)nc1` [TP-020n], the % of control [4] was 75%.

With `CC(C)(O)[C@H](F)CN1Cc2cc(NC(=O)c3cnn4cccnc34)c(N3CCOCC3)cc2C1=O` the dTM [5] was 5 K.

Work on `CC[C@@H]1[C@H](F)C(=O)N[C@@H]1COc1nccc2cc(C(N)=O)c(OC)cc12` [ZIMLOVISERTIB] yielded a % of inhibition [6] of 7.2%.

In the case of `CN(C)CCOc1ccc(-c2nc(-c3ccncc3)c(-c3ccc4c(c3)CC/C4=N\O)[nH]2)cc1`, the % of control [7] is reported as 79%.

In the case of `Cc1cc(F)c(C(=O)Nc2cccc(-c3nncn3C(C)C)n2)cc1-n1cnc(C2CC2)c1`, the % of control [8] is reported as 99%.

Work on `C=CC(=O)Nc1cccc(C(=O)Nc2ccc(Nc3cc(-c4[nH]c(SC)nc4C)ccn3)cc2)c1` yielded a % of control ([9]; at 1 µM) of 88% and a % of control ([9]; at 5 µM) of 91%.
